Columns and labels:
[1] = target: T1, WWP1-2L34H (Homo sapiens, UniProt Q9H0M0); assay: differential scanning fluorimetry (DSF), WWP1; assay type: binding; conditions: 100 μM compound, 0.1% DMSO, Boltzmann fit
T1 construct: WWP1-WW2-2,3-linker-WW3-WW4-HECT (WWP1-2L34H); His-Trx (3C site) (N, cleaved yes); made in house; host or cells: E. coli BL21-CodonPlus RP (plasmid pET32a-WWP1-2L34H, gift of Dr Wenyu Wen)
Description: Differential scanning fluorimetry (DSF) was utilized to initially assess interactions of I3C with both WWP1 and WWP2. Although binding of I3C to WWP1 has been reported previously,[25] we wanted to determine whether such interactions are observed with a protein construct containing the WW2 domain, given its proximity to the proposed exo binding site. In this regard, the WWP1-WW2-2,3-linker-WW3-WW4-HECT (WWP1-2L34H) and WWP2-WW2-2,3-linker-HECT (WWP2-LH) constructs were chosen (SI Figure S2) and DSF assays performed using 100 μM I3C (0.1% DMSO) with midpoint melting temperature (Tm) determined by fitting a Boltzmann regression to the melting curve (Figure 2A). Three independent repeat experiments were performed. […] This is in marked contrast to that seen when using the simple WWP1 HECT domain as a target.[30]
A 96 well-plate (MicroAmp Optical) was loaded with 18 μL of 3.8 μM WWP1-2L34H and 2.5 μM WWP2-LH, in their respective buffers (SI Table S5) containing 5 × SYPRO orange dye. […] The plates were briefly centrifuged before the assay was run using an ABI 7500 RT-PCR following the melt curve using ROX (575 nm) as the “preset” fluorescence dye. […] The midpoint melting temperature (Tm) was calculated using a Boltzmann fit to the fluorescence curve using Protein Thermal Shift Software v1.4 (ThermoFisher). […]

[2] = test system: NEDD4-1; parameters: method as in PMID 27979631; conditions: cited from earlier work
[3] = test system: WWP1 HECT domain; parameters: method as in doi:10.1016/j.phytol.2023.01.002; conditions: thermal shift analysis; cited from earlier work

T1 sequence (Q9H0M0 379-922 limits assumed): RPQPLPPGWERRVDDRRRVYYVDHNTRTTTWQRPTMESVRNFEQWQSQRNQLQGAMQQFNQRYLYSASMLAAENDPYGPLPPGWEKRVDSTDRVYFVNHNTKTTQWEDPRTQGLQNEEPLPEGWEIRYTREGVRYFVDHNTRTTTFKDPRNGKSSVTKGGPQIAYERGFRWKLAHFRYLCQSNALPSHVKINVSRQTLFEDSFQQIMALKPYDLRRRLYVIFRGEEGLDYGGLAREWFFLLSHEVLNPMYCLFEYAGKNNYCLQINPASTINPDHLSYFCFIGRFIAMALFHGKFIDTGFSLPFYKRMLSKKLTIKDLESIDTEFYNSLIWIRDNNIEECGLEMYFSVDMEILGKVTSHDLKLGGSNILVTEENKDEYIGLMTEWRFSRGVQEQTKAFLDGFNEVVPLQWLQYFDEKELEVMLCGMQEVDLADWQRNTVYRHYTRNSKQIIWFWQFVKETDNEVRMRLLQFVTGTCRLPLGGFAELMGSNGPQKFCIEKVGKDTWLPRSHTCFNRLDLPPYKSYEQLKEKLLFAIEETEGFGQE

ΔTm at 100 µM [1]: 0.47 ± 0.15 °C
SMILES: OCc1c[nH]c2ccccc12 [Compound I3C, Indole-3-carbinol, reference compound]
IC50 [2]: 284 µM | shift in Tm [3]: 3.8 °C

From PMC11840788, “3,3′-Diindolylmethane (DIM): A Molecular Scaffold for Inhibition of WWP1 and WWP2, Members of the NEDD4 Family HECT E3 Ligases” (ACS Omega, 2025)
